This passage reports IC50 results from patent US20060229358A1, “Pharmaceutical composition containing flavonoids” (Taipei Medical University, priority 2005, published 2006).

Broadly, the IC50 is the concentration that inhibits the measured activity by half.

SMILES strings stand for the structures.

The target of the first assay is PDE5 (Cavia porcellus, UniProt H0VD23). The assay can be described thus: Inhibition of cyclic nucleotide PDE activity (Assay I), PDE5. The assay is classed as biochemical, guinea pig.
Conditions: not given
Here is the method:
Under a protocol approved by the Animal Care and Use Committee of Taipei Medical University, five male guinea pigs (Hartley), weighing 500-600 g, were sacrificed. The lungs (15 g) or hearts (4 g) taken therefrom were chopped into small pieces and homogenized with a glass/teflon homogenizer (Glas-Col, Terre Haute, Ind., USA) in 10 volumes of cold medium (pH 6.5) containing 20 mM Bis-Tris, 2 mM benzamidine, 2 mM EDTA, 50 mM sodium chloride, 0.1 mM phenylmethanesulfonyl fluoride (PMSF), and 1 mM dithiothreitol. At 4° C., the homogenate was centrifuged at 170 g for 15 min, and the supernatant thereof was then re-centrifuged at 40,000 g for 30 min. […] The column was washed with two bed volumes of homogenate buffer to remove unbound material, where the resin beads therein will bind with proteins, such as PDE proteins. […] And then the samples were frozen at −70° C.
In order to eliminate possible contamination of PDE5 by PDE1, the above-collected fractions with enzyme activity was further purified on a calmodulin-agarose column. The column (1.6 cm×4 cm) was pre-equilibrated by a buffer A, which contains 20 mM Bis-tris, 1 mM dithiothreitol, 2 mM benzamidine, 50 mM NaCl, 3 mMMgCl2, 0.1 mM CaCl2, and 0.1 mM PMSF, pH 6.5. The sample (the mixture of PDE5 and PDE1), being purified by the above-mentioned column, with the CaCl2 concentration thereof adjusted to at least 2 mM previously, was loaded and allowed to be absorbed on the gel for 30 min. Then, the PDE isozymes were eluted by stepwise elution using 20 ml of buffer A with 1 M NaCl followed by 20 ml of buffer A with 1 M NaCl and with 1 mM EGTA.
The activities of PDE1-5 in the homogenate were measured with a two-step procedure according to the method of Thompson and Appleman, using cAMP with [^3H]-cAMP or cGMP with [^3 H]-cGMP as substrates. The PDE enzyme prepared (25 μl) with 10 μl inhibitor or the solvents therefor was incubated for 30 min at 37° C. in a total assay buffer, where the final volume of the assay is amounted to 100 μl. In accordance with the features of the PDE isozymes, the assay buffer contains 50 mM Tris/HCl (pH 7.4), 3 mM MgCl2, 1 mM dithiothreitol, and 0.05% BSA, and optionally contains 1 uM cAMP with 0.2 μCi [^3H]-cAMP as a substrate alone or in the presence of 0.1 unit calmodulin with 10 μM CaCl2, or 5 μM cGMP, and 1 μM cGMP with 0.2 μCi [^3H]-cGMP as another substrate alone or in the presence of 0.1 unit calmodulin with 10 μM CaCl2.
The PDE enzyme and the inhibitors (or their solvent) therefor were mixed and incubated on ice for 30 min previously, and then mixed with the assay buffer. The assay was initiated by transferring the mixture to a water bath at 37° C. Following the other 30 min incubation, the reaction was stopped by transferring the reaction vessel to a bath of boiling water for 3 min. After cooling on ice, 20 μl of the 1 mg/ml of Crotalus atrox venom was added to the reaction mixture, and the mixture was incubated at 37° C. for 10 min. The uncatalyzed substrates, such as cAMP, [^3H]-cAMP, cGMP, or [^3H]-cGMP were removed by the addition of 500 μl of a 1-in-1 Tris-HCl (40 mM) buffer suspension of Dowex resin (1×8-200) with incubation on ice for 30 min, since the bindings of the cyclic nucleotides and the resin. Each tube was then centrifuged for 2 min at 6000 rpm, and 100 μl of the supernatant was removed and counted by a β-counter for calculating the enzyme (PDEs) activity.
The IC50 values of flavonoids and various reference drugs were calculated using non-linear regression analysis by the software SigmaPlot 7.0 (Sigma Chemical, St. Louis Mo., USA).
`O=c1c(-c2ccc(O)cc2)coc2cc(O)cc(O)c12` [Genistein] returned an IC50 of 73.9 ± 7.1 µM.
As to `COc1cc(O)c2c(=O)c(-c3ccc(O)cc3)coc2c1` [Prunetin], the IC50 was greater than 100 µM.

The same assay, now with this note: mean ± S.E.M. (n); read-out: IC50 on phosphodiesterase isozyme 5.
For the compound `O=c1cc(-c2ccc(O)cc2)oc2cc(O)cc(O)c12` [Apigenin], the IC50 is greater than 100 µM.
For `COc1ccc(-c2coc3cc(O)cc(O)c3c2=O)cc1` [Biochanin A], the IC50 was greater than 100 µM.
`O=c1cc(-c2ccccc2)oc2cc(O)cc(O)c12` [Chrysin]: the IC50 is greater than 100 µM.
On to `O=c1c(-c2ccc(O)cc2)coc2cc(O)ccc12` [Daidzein], for which the IC50 is greater than 100 µM.
`O=C1CC(c2ccc(O)c(O)c2)Oc2cc(O)cc(O)c21` (stereo not drawn) [Eriodictyol]: the IC50 is greater than 100 µM.
Turning to `COc1ccc(C2CC(=O)c3c(O)cc(O)cc3O2)cc1O` (stereo not drawn) [Hesperetin], the IC50 was greater than 100 µM.
Consider `O=c1cc(-c2ccc(O)c(O)c2)oc2cc(O[C@@H]3O[C@H](CO)[C@@H](O)[C@H](O)[C@H]3O)cc(O)c12` [Luteolin-7-glucoside], for which the IC50 was greater than 100 µM.
For `O=c1cc(-c2ccc(O)c(O)c2)oc2cc(O)cc(O)c12` [Luteolin], the IC50 was found to be 19.3 ± 3.2 µM.
In the case of `O=c1c(O)c(-c2cc(O)c(O)c(O)c2)oc2cc(O)cc(O)c12` [Myricetin], the IC50 was greater than 100 µM.
As for `O=c1c(O)c(-c2ccc(O)c(O)c2)oc2cc(O)cc(O)c12` [Quercetin], the IC50 was greater than 100 µM.
